Measured values: patent US11292792B2, “Tricyclic CRBN ligands and uses thereof” (Kymera Therapeutics, Inc., priority 2018, dated 2022)

Target: His-tagged CRBN-DDB1 complex (Homo sapiens (Human), UniProt Q96SW2)
Assay: Time-resolved fluorescence resonance energy transfer (TR-FRET) assay, displacement of Cy5-labeled thalidomide
Type: binding
Details: read-out: CRBN HTRF IC50
Description: Equal volumes of His-tagged CRBN-DDB1 complex (56 nM) was mixed with Eu-cryptate labeled Anti-6HIS-monoclonal antibody (50× dilution from the commercial stock solution, Vender: Cisbio, Cat. #61HI2KLA) in a final buffer containing 20 mM HEPES pH 7.0, 150 mM NaCl, 0.005% Tween-20. […] The mixture were incubated at room temperature for 1 hour. FRET signals were measured on an EnVision plate reader (Perkin Elmer) by exciting at 340 nm and recording emission at both 615 nm as no FRET control and 665 nm as the FRET signals with a 60 microsecond delay. FRET efficiency was calculated as the ratio of fluorescent signals at […]. Quantitative loss of FRET efficiency as a function of compound concentrations was fitted by a four-parameter Logistic Function using GraphPad Prism 7.0 and the IC50 values were reported for each compound.
The compound numbers correspond to the compound numbers in Table 1.

Chain of His-tagged CRBN-DDB1 complex (Q96SW2 whole entry): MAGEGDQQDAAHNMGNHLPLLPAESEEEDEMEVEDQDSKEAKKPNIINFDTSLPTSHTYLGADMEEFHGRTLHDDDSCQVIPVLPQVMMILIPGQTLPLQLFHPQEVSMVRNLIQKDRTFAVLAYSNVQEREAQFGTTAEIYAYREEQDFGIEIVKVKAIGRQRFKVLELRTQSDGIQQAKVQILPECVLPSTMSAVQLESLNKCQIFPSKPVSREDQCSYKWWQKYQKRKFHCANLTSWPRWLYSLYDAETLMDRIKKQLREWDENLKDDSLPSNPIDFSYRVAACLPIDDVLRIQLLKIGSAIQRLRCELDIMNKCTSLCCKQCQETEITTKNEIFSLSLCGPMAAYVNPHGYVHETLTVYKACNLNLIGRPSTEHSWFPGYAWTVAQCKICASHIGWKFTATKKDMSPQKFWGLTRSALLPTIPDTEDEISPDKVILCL
Chain of His-tagged CRBN-DDB1 complex (Q16531 whole entry partner): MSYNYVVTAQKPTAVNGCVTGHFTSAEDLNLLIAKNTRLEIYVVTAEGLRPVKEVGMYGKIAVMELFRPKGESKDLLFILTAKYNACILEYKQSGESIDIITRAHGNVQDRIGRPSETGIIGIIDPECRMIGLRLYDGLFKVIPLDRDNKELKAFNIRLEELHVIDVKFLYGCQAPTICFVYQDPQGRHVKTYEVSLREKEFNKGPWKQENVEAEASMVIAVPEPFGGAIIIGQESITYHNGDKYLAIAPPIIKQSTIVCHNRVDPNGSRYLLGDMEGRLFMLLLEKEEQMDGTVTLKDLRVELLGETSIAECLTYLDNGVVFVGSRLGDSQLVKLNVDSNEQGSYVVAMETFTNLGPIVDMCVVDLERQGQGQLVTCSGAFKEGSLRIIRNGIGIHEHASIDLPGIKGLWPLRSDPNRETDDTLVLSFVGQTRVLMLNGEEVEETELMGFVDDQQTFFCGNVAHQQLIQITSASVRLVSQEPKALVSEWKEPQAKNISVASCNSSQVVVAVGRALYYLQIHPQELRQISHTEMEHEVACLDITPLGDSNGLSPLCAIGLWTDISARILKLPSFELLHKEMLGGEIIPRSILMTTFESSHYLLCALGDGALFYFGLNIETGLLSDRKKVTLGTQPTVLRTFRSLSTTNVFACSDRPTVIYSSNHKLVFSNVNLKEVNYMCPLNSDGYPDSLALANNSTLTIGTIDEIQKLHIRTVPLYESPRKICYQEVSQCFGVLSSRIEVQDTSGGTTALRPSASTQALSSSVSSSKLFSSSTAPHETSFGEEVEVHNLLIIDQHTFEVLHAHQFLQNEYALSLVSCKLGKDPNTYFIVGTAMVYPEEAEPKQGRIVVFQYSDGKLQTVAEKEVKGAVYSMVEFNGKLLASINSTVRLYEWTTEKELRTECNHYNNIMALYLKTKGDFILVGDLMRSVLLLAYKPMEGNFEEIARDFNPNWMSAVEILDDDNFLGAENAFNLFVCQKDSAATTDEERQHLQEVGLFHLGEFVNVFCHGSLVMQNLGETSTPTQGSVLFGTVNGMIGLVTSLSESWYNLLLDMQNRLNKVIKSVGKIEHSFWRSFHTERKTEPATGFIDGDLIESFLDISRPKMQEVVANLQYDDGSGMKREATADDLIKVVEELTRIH

Row | Compound | IC50 [µM]
1 | CC(C)(C)OC(=O)NCCOCCCc1ccc2c(c1)c1cccnc1n2C1CCC(=O)NC1=O (stereo not drawn) [I-34, tert-butyl (2-(3-(9-(2,6-dioxopiperidin-3-yl)-9H-pyrido[2,3-b]indol-6-yl)propoxy)ethyl)carbamate] | < 10
2 | O=C1CCC(n2c3cccc(CCCOCCOCCO)c3c3cccnc32)C(=O)N1 (stereo not drawn) [I-51] | < 10
3 | O=C1CCC(n2c3ccc(Br)cc3c3ccc(F)nc32)C(=O)N1 (stereo not drawn) [I-92, 3-(6-bromo-2-fluoro-9H-pyrido[2,3-b]indol-9-yl)piperidine-2,6-dione] | < 10
4 | O=C1CCC(n2c3ccccc3c3ccc(C(F)(F)F)nc32)C(=O)N1 (stereo not drawn) [I-85] | 10 to 30
5 | CCNC(=O)Nc1ccc2c(c1)c1cccnc1n2C1CCC(=O)NC1=O (stereo not drawn) [I-9, 1-(9-(2,6-Dioxopiperidin-3-yl)-9H-pyrido[2,3-b]indol-6-yl)-3-ethylurea] | < 10
6 | O=C1CCC(n2c3c(c4cccnc42)CCCC3)C(=O)N1 (stereo not drawn) [I-70] | 10 to 30
7 | CN(C)c1ccc2c3ccccc3n(C3CCC(=O)NC3=O)c2n1 (stereo not drawn) [I-80, 3-(2-(dimethylamino)-9H-pyrido[2,3-b]indol-9-yl)piperidine-2,6-dione] | 10 to 30
8 | CC(C)(C)OC(=O)NCCOCCOCCCc1ccnc2c1c1ccccc1n2C1CCC(=O)NC1=O (stereo not drawn) [I-57] | < 10
9 | O=C1CCC(n2c3ccccc3c3ncsc32)C(=O)N1 (stereo not drawn) [I-87] | < 10
10 | CC(C)(C)OC(=O)NCCOCCOCC#Cc1ccc2c3ccccc3n(C3CCC(=O)NC3=O)c2n1 (stereo not drawn) [I-74] | 10 to 30
11 | CC(C)(C)OC(=O)NCCOCC#Cc1ccc2c(c1)c1cccnc1n2C1CCC(=O)NC1=O (stereo not drawn) [I-33, tert-Butyl (2-((3-(9-(2,6-dioxopiperidin-3-yl)-9H-pyrido[2,3-b]indol-6-yl)prop-2-yn-1-yl)oxy)ethyl)carbamate] | < 10
12 | O=C1CCC(n2c3ccc(CCCOCCOCCO)cc3c3cccnc32)C(=O)N1 (stereo not drawn) [I-46] | < 10
13 | O=C1CCC(n2c3ccncc3c3cccnc32)C(=O)N1 (stereo not drawn) [I-56, 3-(9H-pyrrolo[2,3-b:4,5-c′]dipyridin-9-yl)piperidine-2,6-dione] | 10 to 30
14 | Cc1ccc2c3ccccc3n(C3CCC(=O)NC3=O)c2n1 (stereo not drawn) [I-86, 3-(2-methyl-9H-pyrido[2,3-b]indol-9-yl)piperidine-2,6-dione] | < 10

Next, values leading:

Row | IC50 [µM] | Compound
15 | 10 to 30 | CC(C)(C)OC(=O)N1CCc2c(c3cccnc3n2C2CCC(=O)NC2=O)C1 (stereo not drawn) [I-40, tert-butyl 9-(2,6-dioxopiperidin-3-yl)-7,8-dihydro-5H-pyrrolo[2,3-b:4,5-c′]dipyridine-6(9H)-carboxylate]
16 | < 10 | CC(C)(C)OC(=O)NCCOCCOCC(=O)NCc1ccc2c(c1)c1cccnc1n2C1CCC(=O)NC1=O (stereo not drawn) [I-36, tert-butyl (2-(2-(2-(((9-(2,6-dioxopiperidin-3-yl)-9H-pyrido[2,3-b]indol-6-yl)methyl)amino)-2-oxoethoxy)ethoxy)ethyl)carbamate]
17 | < 10 | Nc1cnc2c(c1)c1ccccc1n2C1CCC(=O)NC1=O (stereo not drawn) [I-39, 3-(3-amino-9H-pyrido[2,3-b]indol-9-yl)piperidine-2,6-dione]
18 | 30 to 100 | O=C1CCC(n2c3ncccc3c3cccnc32)C(=O)N1 (stereo not drawn) [I-3, 3-(9H-pyrrolo[2,3-b:5,4-b′]dipyridin-9-yl)piperidine-2,6-dione]
19 | < 10 | O=C1CCC(n2c3ccc(NCCOCCOCCOCc4ccccc4)cc3c3cccnc32)C(=O)N1 (stereo not drawn) [I-50]
20 | < 10 | CN(C)c1ccc2c(c1)c1cccnc1n2C1CCC(=O)NC1=O (stereo not drawn) [I-28, 3-(6-(Dimethylamino)-9H-pyrido[2,3-b]indol-9-yl)piperidine-2,6-dione]
21 | 10 to 30 | CC(C)(C)OC(=O)NCCOCCOCCCc1ccc2c3cccnc3n(C3CCC(=O)NC3=O)c2c1 (stereo not drawn) [I-58]
